{"source": "patent US6841236B2", "about": "“Articles containing thioxanthone dyes” (3M Innovative Properties Co., priority 2001, dated 2005)", "key": {"[1]": {"test": "Daytime color of polycarbonate sheet with dye laminated to retroreflective sheeting (Labsphere BFC-450 Bispectral Colorimeter)", "type": "physicochemical", "details": "0.2% dye in polycarbonate FCR-2407, 0.1 mm sheet on Scotchlite 3970; CIE D65, CIE 1931 observer", "protocol": "Examples 8-10 were prepared with the compounds of Examples 1 and 2 and 6-methoxy-14H-anthra(2,1,9-mna)thioxanthene-14-one at a 0.2% loading in polycarbonate FCR-2407. Extrusion conditions for the polycarbonate were 260-304° C. using a single screw extruder. Optically transparent pressure sensitive adhesive with a liner on both sides of the adhesive was laminated to the 0.1 mm thick sheet of polycarbonate by removing one of the liners from the adhesive and then applying the exposed adhesive to the polycarbonate sheet with two passes of a roller using hand pressure.\nThe remaining liner was removed from the adhesive and the polycarbonate sheet construction was laminated to retroreflective sheeting commercially available from 3M under the trade designation “Scotchlite Diamond Grade LDP Reflective Sheeting Series 3970” (Scotchlite 3970) with two passes of a roller using hand pressure. The Scotchlite 3970 reflective sheeting had previously been laminated to a 7 cm wide by 28 cm long aluminum panel (6061T6 alloy with etch and desmut surface from Q Panel Company, Cleveland, Ohio) with two passes of a roller with hand pressure.\n(§1) The daytime color of each article was measured using a Labsphere BFC-450 Bispectral Colorimeter commercially available from Labsphere, North Sutton, N.H. The daytime chromaticity (x,y), total luminance factor (YT), and fluorescence luminance factor (YF; which is a measure of the fluorescent properties of the article) calculated for the CIE D65 and the CIE 1931 observer are provided in TABLE II"}, "[2]": {"test": "Dye concentration in saturated acetone solution at room temperature", "type": "physicochemical", "details": "72 hours at RT, 0.45 micron PTFE filtered, absorbance at 535 nm", "protocol": "Examples 4-7 were prepared by placing 60-100 mg of each of the compounds of Examples 1-3 and 6-methoxy-14H-anthra(2,1,9-mna)thioxanthene-14-one (described by Carlini et al.) in a vial with 5.0 ml acetone. […] Each vial was hand shaken and the solution was filtered using a 0.45 micron polytetrafluoroethylene (PTFE) filter commercially available from VWR Scientific Products, West Chester, Pa. under the trade designation “Acrodisc 13CR PTFE”.\nThe amount of fluorescent dye in the saturated acetone solution was determined by measuring the major dye absorption band at 535 nm using a UV-Vis Spectrophotometer commercially available from Shimadzu Scientific Instruments, Inc., Columbia, Md. under the trade designation “Shimadzu model UV-2401PC”. Dye concentrations were calculated by measuring the absorbance of the saturated acetone solution, and then diluting that solution until absorbance of the resulting solution was below 3. The dyes were assumed to have equal absorbance per mole. Using the dilution and an absorbance coefficient of 16,100 A/mol/L (coefficient obtained in acetone for the dye of Example 3) and assuming a Beer's Law relationship, the concentration of dye in each saturated solution was calculated and is set out in TABLE I"}, "[3]": {"test": "Daytime color and visual inspection of PMMA film with dye laminated to retroreflective sheeting", "type": "physicochemical", "details": "for visual inspection of film for undissolved dye: extruded PMMA CP923 film 0.1 mm, 6-methoxy dye at 1 wt.-%, dyes of Examples 1-2 at up to 1.27 wt-%", "protocol": "as §1\nExamples 11-16 were prepared with the compounds of Examples 1-2 and 6-methoxy-14H-anthra(2,1,9-mna)thioxanthene-14-one in polymethylmethacrylate (PMMA) resin at the wt.-% of dye shown in TABLE III. The samples were prepared by dry blending the dye with a medium impact modified grade PMMA resin commercially available from Ineos Acrylics Inc., Cordova, Tenn. under the trade designation “CP923”. Films of 0.1 mm thickness were extruded through a single screw extruder with three heating zones set at 249° C. to 260° C. […] Examples 11 and 12 and Examples 13 and 14 had equal molar loadings of dye.\nThe resultant films were laminated to Scotchlite 3970 reflective sheeting on aluminum panels as described in Examples 8-10. Color values were measured as described in Examples 8-10 and the results set out in TABLE III."}, "[4]": {"test": "Daytime color of copolyester film with dye laminated to retroreflective sheeting", "type": "physicochemical", "details": "dye 0.2 wt.-% in copolyester resin, 0.1 mm film on Scotchlite 3970", "protocol": "as §1\nExamples 17-18 were prepared as described in Examples 8-10, except that the dyes of Examples 1 and 2 at a 0.2 wt.-% loading were independently incorporated into a copolyester resin. The copolyester resin was prepared using terephthalic and isophthalic acid in an 80/20 ratio and ethylene glycol in the conventional manner and analogous to the production of polyethylene terephthalate according to the method described in Macromolecular Syntheses, A Periodic Publication of Methods for the Preparation of Macromolecules, Collective Volume I, 1977, J. A. Moore, Editor, (John Wiley & Sons, New York; 1978);p. 17-21. The extrusion conditions for the copolyester were 254-260° C. using a single screw extruder and the resultant film thickness was 0.1 mm.\nThe resultant films were laminated to Scotchlite 3970 reflective sheeting on aluminum panels as described in Examples 8-10. Color values were measured as described in Examples 8-10 and the results set out in TABLE IV."}, "[5]": {"test": "Daytime color of polyurethane film with dye laminated to retroreflective sheeting", "type": "physicochemical", "details": "dye 0.2 wt.-% in aliphatic polyester polyurethane PN03.214, 0.1 mm film on Scotchlite 3970", "protocol": "as §1\nExamples 24-27 were prepared as described in Examples 8-10, except that the dyes of Examples 1, 3, 6-(2-hydroxy-ethoxy)-14H-anthra(2,1,9-mna)thioxanthene-14-one (described by Carlini et al.) and 6-methoxy-14H-anthra(2,1,9-mna)thioxanthene-14-one were independently used at 0.2 wt.-% loading in an aliphatic polyester polyurethane resin commercially available from Huntsman Polyurethanes, West Deptford, N.J., USA under the trade designation “PN03.214”. The extrusion conditions for the polyurethane were 154-191° C. and the resultant film thickness was 0.1 mm.\nThe resultant films were laminated to Scotchlite 3970 reflective sheeting on aluminum panels as described in Examples 8-10. Color values were measured as described in Examples 8-10 and the results set out in TABLE VII."}, "[6]": {"test": "Daytime color of Paraloid B66 dye coating on retroreflective sheeting", "type": "physicochemical", "details": "for YF (fluorescence luminance factor) / YT (total luminance factor) / x (daytime chromaticity) / y (daytime chromaticity): 0.10 parts dye in 64.8 parts Dowanol DPMA and 38.2 parts Paraloid B66, coated on Scotchlite 3970 with #16 wire wound bar, dried", "protocol": "as §1\nExamples 19-21 were prepared by independently stirring 0.10 parts of the dyes of Examples 1 and 3 and 6-methoxy-14H-anthra(2,1,9-mna)thioxanthene-14-one in a clear vehicle solution of 64.8 parts Dowanol DPMA and 38.2 parts Paraloid B66.\nThe fluorescent dye solutions were coated on Scotchlite 3970 reflective sheeting using a #16 wire wound bar. The coating was air dried for 5 minutes and then dried in a 120° C. oven for 45 minutes. Color values were measured as described in Examples 8-10 and the results set out in TABLE V."}, "[7]": {"test": "Daytime color of vinyl film with dye laminated to retroreflective sheeting", "type": "physicochemical", "details": "0.18 g dye in 65 g GEON 178 / Elvacite 2013 mixture, 0.04 mm vinyl film on Scotchlite 3970", "protocol": "as §1\nExamples 22-23 were prepared by independently stirring 0.18 g of the dye of Examples 1 and 3 into 65 g of a mixture composed of 42 wt.-% DIBK, xylol, and mineral spirit (1.7:2.3:1), 44 wt.-% of a polyvinyl chloride dispersion commercially available from PolyOne, Cleveland, Ohio under the trade designation “GEON 178” and 14 wt.-% of a polyacrylate commercially available from Ineos Acrylics Inc., Cordova, Tenn. under the trade designation “Elvacite 2013”. Each mixture was allowed to stand at room temperature for one hour prior to knife coating onto a pre-sized paper substrate. Each coated substrate was placed in a 150° F. (66° C.) oven for 1.5 minutes, followed by a 300° F. (149° C.) oven for 1.0 minute and a 400° F. (204° C.) oven for 0.75 minute, resulting in a 0.04 mm thick fluorescent colored vinyl film.\nThe resultant films were laminated to Scotchlite 3970 reflective sheeting on aluminum panels as described in Examples 8-10. Color values were measured as described in Examples 8-10 and the results set out in TABLE VI."}, "[8]": {"details": "dye 0.2 wt-% in PMMA CP923, 0.1 mm film on Scotchlite 3970"}, "[9]": {"details": "dye 0.3 wt-% in PMMA CP923, 0.1 mm film on Scotchlite 3970"}, "[10]": {"details": "dye 1.0 wt-% in PMMA CP923, 0.1 mm film on Scotchlite 3970"}}}
{"compound": "CCCCC(CC)COc1cc2c3ccccc3c(=O)c3ccc4c5ccccc5sc1c4c32", "note": "(stereo not shown) [Example 2, 6-[(2-Ethylhexyl)oxy]-14H-anthra[2,1,9-mna]thioxanthene-14-one]", "values": [{"measurement": "YF (fluorescence luminance factor)", "setting": "[1]", "value": 16.6}, {"measurement": "YT (total luminance factor)", "setting": "[1]", "value": 32.05}, {"measurement": "x (daytime chromaticity)", "setting": "[1]", "value": 0.5336}, {"measurement": "y (daytime chromaticity)", "setting": "[1]", "value": 0.2979}, {"measurement": "Dye Concentration in Acetone at RT", "setting": "[2]", "value": 0.96, "unit": "mg/mL"}, {"measurement": "X (daytime chromaticity)", "setting": "[3]; [8]", "value": 0.6064}, {"measurement": "YF (fluorescence luminance factor)", "setting": "[3]; [8]", "value": 14.69}, {"measurement": "YT (total luminance factor)", "setting": "[3]; [8]", "value": 31.13}, {"measurement": "y (daytime chromaticity)", "setting": "[3]; [8]", "value": 0.3113}, {"measurement": "visual inspection of film for undissolved dye", "setting": "[3]", "value": "uniform appearance with no undissolved dye seen"}, {"measurement": "melting point", "value": "175 to 177", "unit": "°C"}, {"measurement": "YF (fluorescence luminance factor)", "setting": "[4]", "value": 12.77}, {"measurement": "YT (total luminance factor)", "setting": "[4]", "value": 19.91}, {"measurement": "x (daytime chromaticity)", "setting": "[4]", "value": 0.5627}, {"measurement": "y (daytime chromaticity)", "setting": "[4]", "value": 0.2785}]}
{"compound": "O=c1c2ccccc2c2cc(OCCO)c3sc4ccccc4c4ccc1c2c34", "note": "[6-(2-hydroxy-ethoxy)-14H-anthra(2,1,9-mna)thioxanthene-14-one, reference compound]", "values": [{"measurement": "X (daytime chromaticity)", "setting": "[5]", "value": 0.6000}, {"measurement": "YF (fluorescence luminance factor)", "setting": "[5]", "value": 10.09}, {"measurement": "YT (total luminance factor)", "setting": "[5]", "value": 14.71}, {"measurement": "y (daytime chromaticity)", "setting": "[5]", "value": 0.2756}]}
{"compound": "CC(C)CC(CC(C)C)Oc1cc2c3ccccc3c(=O)c3ccc4c5ccccc5sc1c4c32", "note": "[Example 3, 6-(1-Isobutyl-3-methylbutoxy)-14H-anthra[2,1,9-mna]thioxanthene-14-one]", "values": [{"measurement": "Dye Concentration in Acetone at RT", "setting": "[2]", "value": 2.98, "unit": "mg/mL"}, {"measurement": "YF (fluorescence luminance factor)", "setting": "[6]", "value": 17.05}, {"measurement": "YT (total luminance factor)", "setting": "[6]", "value": 33.17}, {"measurement": "x (daytime chromaticity)", "setting": "[6]", "value": 0.4971}, {"measurement": "y (daytime chromaticity)", "setting": "[6]", "value": 0.3113}, {"measurement": "appearance of coated article", "setting": "[6]; dye in Paraloid B66 coating on Scotchlite 3970", "value": "bright fluorescent pink appearance"}, {"measurement": "X (daytime chromaticity)", "setting": "[5]", "value": 0.5970}, {"measurement": "YF (fluorescence luminance factor)", "setting": "[5]", "value": 11.62}, {"measurement": "YT (total luminance factor)", "setting": "[5]", "value": 17.66}, {"measurement": "y (daytime chromaticity)", "setting": "[5]", "value": 0.2886}, {"measurement": "Y (daytime chromaticity)", "setting": "[7]", "value": 0.2609}, {"measurement": "YF (fluorescence luminance factor)", "setting": "[7]", "value": 12.92}, {"measurement": "YT (total luminance factor)", "setting": "[7]", "value": 24.21}, {"measurement": "x (daytime chromaticity)", "setting": "[7]", "value": 0.4952}]}
{"compound": "COc1cc2c3ccccc3c(=O)c3ccc4c5ccccc5sc1c4c32", "note": "[6-methoxy-14H-anthra(2,1,9-mna)thioxanthene-14-one, reference compound]", "values": [{"measurement": "YF (fluorescence luminance factor)", "setting": "[1]", "value": 16.15}, {"measurement": "YT (total luminance factor)", "setting": "[1]", "value": 28.24}, {"measurement": "x (daytime chromaticity)", "setting": "[1]", "value": 0.6163}, {"measurement": "y (daytime chromaticity)", "setting": "[1]", "value": 0.3025}, {"measurement": "Dye Concentration in Acetone at RT", "setting": "[2]", "value": 0.06, "unit": "mg/mL"}, {"measurement": "YF (fluorescence luminance factor)", "setting": "[6]", "value": 1.12}, {"measurement": "YT (total luminance factor)", "setting": "[6]", "value": 17.05}, {"measurement": "x (daytime chromaticity)", "setting": "[6]", "value": 0.3977}, {"measurement": "y (daytime chromaticity)", "setting": "[6]", "value": 0.3225}, {"measurement": "X (daytime chromaticity)", "setting": "[3]; [9]", "value": 0.6072}, {"measurement": "YF (fluorescence luminance factor)", "setting": "[3]; [9]", "value": 11.64}, {"measurement": "YT (total luminance factor)", "setting": "[3]; [9]", "value": 17.02}, {"measurement": "y (daytime chromaticity)", "setting": "[3]; [9]", "value": 0.3117}, {"measurement": "X (daytime chromaticity)", "setting": "[3]; [10]", "value": 0.5723}, {"measurement": "YF (fluorescence luminance factor)", "setting": "[3]; [10]", "value": 3.67}, {"measurement": "YT (total luminance factor)", "setting": "[3]; [10]", "value": 5.28}, {"measurement": "y (daytime chromaticity)", "setting": "[3]; [10]", "value": 0.3064}, {"measurement": "visual inspection of film for undissolved dye", "setting": "[3]", "value": "particles of dye in the film"}, {"measurement": "X (daytime chromaticity)", "setting": "[5]", "value": 0.5989}, {"measurement": "YF (fluorescence luminance factor)", "setting": "[5]", "value": 9.69}, {"measurement": "YT (total luminance factor)", "setting": "[5]", "value": 14.81}, {"measurement": "y (daytime chromaticity)", "setting": "[5]", "value": 0.2780}]}
